The values that follow come from patent US8658620B2, “Pharmaceutical composition, use of 2-iminopyrrolidine derivative for production of pharmaceutical composition, and kit for treatment or amelioration of heart diseases” (Eisai R&D Management Co., Ltd., priority 2008, dated 2014).

The subject of this assay is guinea pig photosensitization-induced thrombus model. Nature of the assay: guinea pig photosensitization-induced thrombus model (rose bengal / green light, femoral artery blood flow time). The class given is in vivo. As to conditions: male Hartley guinea pigs, oral, about 115-120 min after administration, vehicle control 6.72 minutes. Here is the method:
At least one compound selected from the group consisting of the formulas (I) to (VII) or a pharmacologically acceptable salt thereof and at least one other compound (B) selected from group B are administered orally, single or in mixture, to male Hartley guinea pigs. As a vehicle, 0.5% methylcellulose solution or an aqueous solution containing dimethylsulfoxide and Tween 20 is used. (These compounds may be administered repeatedly.)
At a specific time after the oral administration, guinea pigs are anesthetized by intraperitoneal administration of sodium pentobarbital. Under anesthesia, the cervical vein is exposed and a polyethylene tube is cannulated thereinto for administering rose bengal. The femoral artery is exposed and fitted with a probe for blood flow measurement. A site upstream of the probe is irradiated with green light (wavelength 540 nm, 500,000 lux). […] Time to complete cessation of blood flow is measured.
A hydrobromide of a compound represented by the formula (I) (hereinafter, referred to as “the compound of Example 1”) and aspirin were dissolved with DMSO to give concentrations of 200 mg/mL and 1000 mg/mL, respectively. […] Blood flow time from the beginning of rose bengal administration to the complete cessation of blood flow was measured to evaluate antithrombotic effects.

Counter-ions that a name gives are not always drawn.

Consider `CC(=O)Oc1ccccc1C(=O)O` [aspirin], for which the “blood flow time from the beginning of rose bengal administration to the complete cessation of blood flow” value (aspirin alone 100 mg/kg) is 11.30 min.
Turning to `CCOc1cc2c(c(F)c1OCC)C(=N)N(CC(=O)c1cc(N3CCOCC3)c(OC)c(C(C)(C)C)c1)C2` [Example 1, 1-(3-tert-Butyl-4-methoxy-5-morpholino-phenyl)-2-(5,6-diethoxy-7-fluoro-1-imino-1,3-dihydro-isoindol-2-yl)-ethanone; hydrobromide], for the setting “compound of Example 1 alone 30 mg/kg”, the “blood flow time from the beginning of rose bengal administration to the complete cessation of blood flow” value stood at 10.77 min.
